PMC1079869 (BMC Neuroscience, 2005)
Square brackets hold non-standard residues; d marks the D form. Peptide text beside a SMILES is read from it.

Columns and labels:
[1] = target: T1, c-MYC-tagged human delta opioid receptor (Homo sapiens, UniProt P41143); assay: Tb-DeltI binding on CHO/MYChDOR whole cells, effect of (1DMe)NPYF (time-resolved fluorometry); settings: whole cells, relative BMAX, n = 3
Protocol: 6 μg of crude membrane preparations or whole cells (25 000 cell/well) that were plated one day before experiment and fixed with 4 % PFA for 10 min at room temperature, were used in the saturation binding experiments. The whole cell assays were carried out on normal cell culture plates and the assays with membrane preparations on special filter plates (Pall Life Sciences). The cells or membranes were incubated in 50 mM Tris/HCl pH 7.5; 2.5 mM MgCl2; 60 mM NaCl; 25 μM EDTA, 0.2 % BSA (w/v) for 90 min at room temperature with 0.01 – 781.25 nM Tb-DeltI in the presence or absence of 1 or 5 μM unlabeled DeltI. To study the effect of (1DMe)NPYF on the Tb-DeltI binding, 1–1000 nM (1DMe)NPYF was added together with unlabeled DeltI. After the incubation the unbound Tb-DeltI was removed by washing the plates four times with 50 mM Tris/HCl pH 7.5; 2.5 mM MgCl2. Vacuum pump system was used to wash the filter plates. Since the chelate-bound Tb-ion is nonfluorescent, it needed to be released from the complex. In order to release Tb-ion from the chelate 150 μl Delfia enhancement solution was added to the wells and the plates were incubated on a shaker for 15 min. Thereafter, 40 μl Delfia enhancer that changes the pH of the assay solution appropriate for Tb-fluorescence was added, and the plates were further incubated for 5 min on a shaker. The time-resolved fluorescence of the released Tb-ion was measured with Victor^2 Multilabel counter (Perkin Elemer Wallac, Turku, Finland).

[2] = target: T1, c-MYC-tagged human delta opioid receptor; assay: Tb-DeltI saturation binding on CHO/MYChDOR cell membranes (time-resolved fluorometry); settings: 0.01 – 781.25 nM Tb-DeltI; 6 μg membranes; pH 7.5, 90 min room temperature; nonspecific with 1 μM DeltI; Figure 4B
Protocol: The cells were collected with PBS + 0.2 % EDTA (w/v) and washed with cold PBS. The CHO/MYChDOR or CHO-K1 cells were suspended into ice-cold 50 mM Tris/HCl, 5 mM EDTA, pH 7.5 and homogenized with Potter S-homogenisator on ice. The homogenate was centrifuged 47800 × g at 4°C and the pellet was suspended into the Tris/EDTA buffer and the homogenization/centrifugation was repeated. The pellet was suspended into cold binding assay incubation buffer and the protein content was measured with the Bradford method.
6 μg of crude membrane preparations or whole cells (25 000 cell/well) that were plated one day before experiment and fixed with 4 % PFA for 10 min at room temperature, were used in the saturation binding experiments. The whole cell assays were carried out on normal cell culture plates and the assays with membrane preparations on special filter plates (Pall Life Sciences). […] Thereafter, 40 μl Delfia enhancer that changes the pH of the assay solution appropriate for Tb-fluorescence was added, and the plates were further incubated for 5 min on a shaker. The time-resolved fluorescence of the released Tb-ion was measured with Victor^2 Multilabel counter (Perkin Elemer Wallac, Turku, Finland).

T1 sequence (P41143 whole entry): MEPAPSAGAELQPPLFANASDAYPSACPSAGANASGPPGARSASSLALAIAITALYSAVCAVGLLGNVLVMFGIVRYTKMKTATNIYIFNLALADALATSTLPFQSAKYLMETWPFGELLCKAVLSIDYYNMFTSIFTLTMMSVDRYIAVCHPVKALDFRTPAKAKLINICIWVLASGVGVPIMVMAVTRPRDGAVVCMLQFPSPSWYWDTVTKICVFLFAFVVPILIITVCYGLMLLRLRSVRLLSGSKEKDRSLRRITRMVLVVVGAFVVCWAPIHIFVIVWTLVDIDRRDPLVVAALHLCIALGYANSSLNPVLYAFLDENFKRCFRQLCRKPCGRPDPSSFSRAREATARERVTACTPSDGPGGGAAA

Which “BMAX for Tb-DeltI” value ([1]; 0 nM (1DMe)NPYF) does the source give for `CC(C)[C@H](NC(=O)[C@H](CC(=O)O)NC(=O)[C@H](Cc1ccccc1)NC(=O)[C@@H](C)NC(=O)[C@H](Cc1ccc(O)cc1)NC(=O)[C@@H](N)CS)C(=O)N[C@H](C(=O)NCC(N)=O)C(C)C` [Tb-DeltI] (H-CY[dA]FDVVG-NH2; N-terminus and C-terminus assumed) here?
The value was 1.60 ± 0.06 pmol/cell.

What about the “BMAX for Tb-DeltI” value ([1]; in presence of 1 nM (1DMe)NPYF, *** p < 0.001 vs absence of (1DMe)NPYF) of the same compound?
Its value is 0.70 ± 0.08 *** pmol/cell.

And the “BMAX for Tb-DeltI” value ([1]; in presence of 10 nM (1DMe)NPYF, *** p < 0.001 vs absence of (1DMe)NPYF)?
Its value is 0.89 ± 0.06 *** pmol/cell.

What about the “BMAX for Tb-DeltI” value ([1]; in presence of 100 nM (1DMe)NPYF) of the same compound?
The value was 1.42 ± 0.11 pmol/cell.

What about the “BMAX for Tb-DeltI” value ([1]; in presence of 1000 nM (1DMe)NPYF) of the same compound?
Its value is 1.49 ± 0.10 pmol/cell.

What about the “Tb-DeltI binding to cell membranes” value [2] of the same compound?
Its value is “dose-dependently and the binding was saturable at a nanomolar range”.
